Results: patent publication US20150219624A1, “METHODS FOR IDENTIFYING ANTI-CANCER COMPOUNDS” (MEMORIAL SLOAN KETTERING CANCER CENTER, priority 2013, published 2015)

Experiments:
[1] = system: cap-dependent translation; test: Dual-luciferase reporter assay (capped vs IRES-driven luciferase); assay type: cell-based; conditions: renilla and firefly luciferase either capped or under control of an IRES element
Method: Luciferase assays. Four tandem repeats of the (CGG)4 12-mer motif (GQs) or random sequence matched for length and GC content (random) were cloned into the 5′UTR of Renilla luciferase plasmid pGL4.73. Empty firefly luciferase plasmid pGL4.13 or HCV-IRES firefly were used as internal controls. Luciferase assays were performed using Dual-Luciferase Reporter Assay System (Promega E1960) following the manufacturer's instructions. GQs sequence: […]

[2] = system: KOPTK1 cells; test: Metabolic labeling of nascent protein with L-azidohomoalanine (AHA); assay type: cell-based, human; conditions: 100 nM; p vs. vehicle 2×10−4
Method: (Non-radioactive) Metabolic labeling of nascent protein. KOPTK1 cells were labeled for nascent protein synthesis using Click-iTR AHA (L-azidohomoalanine) metabolic labeling reagent obtained from Invitrogen (cat no. C10102) as per manufacturer's instructions. Briefly, following silvestrol, Cycloheximide or DMSO treated cells were incubated in methionine free medium for 30 min prior to AHA labeling for 1 hr. Cells were fixed with 4% paraformaldehyde in PBS for 15 min, permeablized with 0.25% Triton X-100 in PBS for 15 min followed by one wash with 3% BSA. Cells were then stained using Alexa Fluor 488 Alkyne (Invitrogen cat no. A10267) with Click-iT Cell reaction Buffer Kit (Invitrogen cat no. C10269). Changes in mean fluorescence intensity as a measure of newly synthesized protein was detected by Flow cytometry analysis.
The number of ribosomes occupying a given transcript is given as gene specific RF reads per one million total reads (RPM).
FIG. 10 depicts ribosome profiling quality control data and effects on translation. A and B) Read counts by length of mapped sequence before and after filtering rRNA, linker reads, non-coding RNAs, short mapped sequences (“noisy” reads; see text and method for details). C and D) Read length frequency histograms and mapping analysis of ribosome footprint data after quality control filtering for vehicle treated cells (C) or silvestrol treated cells (D). […]

Structure (SMILES): CC(/C=C/C(C)=C/[C@@H]1Cc2nc(cs2)[C@@H](C)C[C@@H](N)CC(=O)O[C@@H](C)C/C(C)=C/C=C\C(=O)O1)=C\CN(C)C [pateamine A, (3S,6Z,8E,11S,15R,17S)-15-amino-3-[(1E,3E,5E)-7-(dimethylamino)-2,5-dimethylhepta-1,3,5-trienyl]-9,11,17-trimethyl-4,12-dioxa-20-thia-21-azabicyclo[16.2.1]henicosa-1(21),6,8,18-tetraene-5,13-dione]
- block of cap-dependent versus IRES-dependent translation [1]: preferentially block cap-dependent over IRES-dependent translation

Structure (SMILES): C[C@@H]1C[C@@H]([C@H](O)CC2CC(=O)NC(=O)C2)C(=O)[C@@H](C)C1 [cycloheximide, Cycloheximide]
- max. reduction of nascent protein synthesis (AHA labeling) [2]: 80%

Structure (SMILES): C[C@H]1C[C@@]2(O[C@H]3C[C@H]4[C@@H]5CC[C@H]6C[C@H](O)CC[C@]6(C)[C@H]5[C@@H](O)C[C@]4(C)[C@H]3[C@@]2(C)O)OC1(C)C [hippuristanol]
- block of cap-dependent versus IRES-dependent translation [1]: preferentially block cap-dependent over IRES-dependent translation
